Measurements: patent publication US20240166626A1, “Compounds and Methods for Preventing, Treating, or Ameliorating Airway Disease” (THOMAS JEFFERSON UNIVERSITY, priority 2021, published 2024)

Molecular target: β2AR (Homo sapiens, UniProt P07550)
Assay: cAMP measurement by ELISA in HEK 293 cells stably overexpressing β2AR
Assay type: cell-based
Method: Schematic of screening methodologies for cAMP production and β-arrestin binding. Cells were treated with the unbiased beta-agonist isoproterenol (ISO)±test compounds. The primary high throughput screen utilized a luciferase-based cAMP biosensor, GLOSENSORTM (Promega), and an enzyme complementation-based assay, […]® (DiscoveRx). Independent secondary screening utilized a cAMP ELISA and BRET for β-arrestin recruitment. […] Secondary screen for cAMP production by ELISA. […] Cells were lysed and cAMP production was measured. […] Dose response curve for DFPQ as measured by BRET. […] Data for dose response curve was taken 12 min post ISO addition. n=3. […] Cells were lysed and cAMP production was measured by ELISA. […] Cells were read every three minutes for 18 minutes on a PolarStar Optima plate reader (BMG) to establish peak signal. […] Luminescence was determined at room temperature (23-25° C.) on a PolarStar Optima plate reader (BMG). […] Relative assay bias was calculated from the ratio of normalized cAMP and arrestin recruitment responses. […] BRET was measured using a Tecan Infinite F500 microplate reader. […] Bound [35 S]GTPγS was collected by rapid filtration on GF/B filters, washed 4 times with 4 ml of cold GTPγS wash buffer and analyzed by liquid scintillation counting. […] Immunoprecipitated proteins were separated by SDS-PAGE and analyzed by western blot using a β2AR C-terminal tail or phospho-specific antibody. […]

Chain of β2AR (P07550 whole entry): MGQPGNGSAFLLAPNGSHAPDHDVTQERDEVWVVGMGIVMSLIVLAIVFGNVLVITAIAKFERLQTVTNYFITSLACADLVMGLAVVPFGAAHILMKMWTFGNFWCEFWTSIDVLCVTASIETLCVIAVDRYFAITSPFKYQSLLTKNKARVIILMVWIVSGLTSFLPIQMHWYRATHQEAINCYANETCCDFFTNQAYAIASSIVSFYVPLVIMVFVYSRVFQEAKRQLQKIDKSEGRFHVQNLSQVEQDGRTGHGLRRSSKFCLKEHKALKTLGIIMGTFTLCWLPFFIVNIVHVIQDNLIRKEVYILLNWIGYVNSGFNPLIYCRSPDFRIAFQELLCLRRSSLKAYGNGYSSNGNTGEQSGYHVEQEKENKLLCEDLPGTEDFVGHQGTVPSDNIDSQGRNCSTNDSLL

How did the “effect on ISO-stimulated cAMP production” value (10 μM DFPQ, 1 μM ISO 10 min, FIG. 1B) turn out when `Fc1ccc(Nc2nc(NC3CCCCC3)c3ccccc3n2)cc1F` [DFPQ, N^4-cyclohexyl-N^2-(3,4-difluorophenyl)quinazoline-2,4-diamine] was run?
The value was “no effect”.

And the “effect on ISO dose response curves, cAMP production readout” value (increasing concentrations up to 10 μM DFPQ, FIG. 1E)?
Its value is “no effect”.
